{
  "source": "patent US6680025B2",
  "about": "“Device and method for photoactivation” (Cerus Corporation, priority 1989, dated 2004)",
  "key": {"E. coli polymerase I": {"tested_on": "E. coli polymerase I", "conditions": "cited from earlier work"}, "Taq I DNA polymerase": {"tested_on": "Taq I DNA polymerase", "experiment": "Primer extension on site-specific monoadducted 71-mer, Taq polymerase", "assay_type": "biochemical, Thermus aquaticus", "conditions": "55° C., single extension", "method": "In this experiment, monoadducted 71-mers (as well as unmodified 71-mers) were used in template-dependent enzymatic extension. AMIP, AMDMIP, and MIP 71-mer monoadducts were made as in Example 42. Extension was carried out as in Example 43 except that in this experiment, Taq I DNA polymerase, a thermostable DNA polymerase isolated from Thermus aquaticus (Stratagene, Inc., La Jolla, Calif.) was assessed for its ability to read past isopsoralens.\nThe reaction mixture was in 80 μl total volume and comprised 1×Taq buffer, 200 μM each of dNTP's, 0.05 units of Taq per μl of reaction volume; 1×10^−9 M in 71-mer MA; 1×10^−8 M in ^32P-labelled SK-39. Each reaction was set up with everything except Taq polymerase. The samples were initially heated to 95° C. for 5 mins, then incubated at 55° C. for 3 mins. The extension reaction was initiated by addition of Tas polymerase. At the indicated time points (0.5, 1.0, 5.0 mins), 20 μl of the reaction mix was removed to a tube containing 1 μl of 0.5 M EDTA to stop the reaction. All products were analyzed on a 20% polyacrylamide, 7 M urea gel followed by autoradiography.\nThis experiment investigated whether blocking of Tag polymerase by monoadducts is complete or whether monoadducts can be bypassed by the enzyme. In order to view the process of bypass syrthesis, it is necessary to cycle the extension reaction of the primer with the 71-mer templates. Cycling in this case consists of mixing the primer with the 71-mer template, adding Taq polymerase and appropriate reagents, extending, heating to induce strand separation, reannealing of the primer to the 71-mer template, extending again, and subsequent stand separation. This process can be repeated as necessary. During this process, only the complement of the 71-mer template is being synthesized. It is accumulating in a linear fashion with the number of thermal cycles (in contrast to PCR where both strands are being synthesized and accumulate geometrically).\nThe templates and reaction conditions were as in Example 44 above except that three samples were used for each monoadduct and each sample was tested under different conditions:\nSamples (1): one sample for each monoadduct was used to carry out extension at 55° C. as in Example 43;\nSamples (2): one sample for each monoadduct was used to carry out extension by the following series of steps: denaturing at 95° C.; incubating for 30 seconds at 55° C.; adding Taq polymerase for 3 minutes at 55° C.; cooling the reaction for 1 minute at 7° C.; stopping the reaction with EDTA for one minute at 95° C.\nSamples (3): one sample for each monoadduct was used to carry out extension by repeating the following series of steps nine times: denaturing at 95° C.; incubating for 30 seconds at 55° C.; adding Taq polymerase for 3 minutes at 55° C.; cooling the reaction for 1 minute at 7° C. At the end, the reaction is stopped with EDTA for one minute at 95° C.\nTo investigate this question further, a new 5-MIP monoadducted 71-mer was prepared by repurification of the HPLC purified 5-MIP ronoadducted 15-mer by PAGE. In this way, more of the non-monoadducted 15-mer was removed prior to ligation. The purified 71-mer was then used as template in an extension experiment as described in Example 45. After 10 cycles, there was still evidence of extension product (FIG. 34).\nMonoadducted 71-mer was constructed as described, but for HMT. Extension was carried out and analyzed as before on PAGE. […] Full length 71-mer is not made and a shorter strand corresponding to the position of the HMT adduct was made."}, "PCR'd MACS 1555 target": {"tested_on": "PCR'd MACS 1555 target", "experiment": "Inhibition of PCR by non-psoralen compounds in the absence of light", "assay_type": "biochemical", "excerpt": "The compounds tested were the following: 1) ethidium bromide (a Phenanthridine, see Table 1), 2) xylene cylanol (an Organic Dye, see Table 1), 3) bromphenol blue (an Organic Dye, see Table 1), 4) coumarin and 5) methylene blue (a Phenazathionium Salt, see Table 1).\nA separate experiment examined PCR inhibition with coumarin and methylene blue in the absence of light. The following concentrations of methylene blue were tried: 4.3×10^−2, 4.3×10^−3, 4.3×10^−4 and 4.3×10^−5 M. Concentrations of coumarin tried included: 7×10^−3, 7×10^−4, 7×10^−5 and 7×10^−6 M. Compound was added to PCR tube containing α-^32P-dCTP and target (1 μl […].; PCR'd MACS 1555 per assay-point). PCR was carried out for 30×cycles. Samples were loaded onto a 12%/8 M urea gel."}, "[1]": {"experiment": "Solubility of photoreactive compounds in 1×TE", "assay_type": "physicochemical", "conditions": "excess compound heated 50-70° C., stirred at room temperature, filtered, optical density", "method": "The solubilities of AMIP, AMDMIP, DMIP, MIP and isopsoralen (IP) were determined experimentally according to the scheme set forth in FIG. 5. To perform the solubility measurement, it was first necessary to establish known optical densities for a 1 μg/ml solution of each compound. These were determined by preparing either ethanolic or aqueous stocks of each compound at known concentrations in 1×TE, then measuring the optical density of each solution. From this information, the absorption of a 1 μg/ml solution was computed. Alternatively, the extinction coefficient may be thus determined and used in the same fashion. In this manner, the following absorption data was collected:\nFollowing this step, undissolved compound was removed by filtration using a 0.2 u nylon-66 syringe filter (Arco LC13; Gelman). The concentration of the remaining soluble compound was then determined by measuring the optical density of the filtrate and computing the solubility from the known optical density of a 1 μg/ml solution of that compound. The solubility of the compounds was thus determined to be as follows: […]"}, "Taq polymerase": {"molecular_target": "Taq polymerase (Thermus aquaticus, UniProt P19821)", "sequence (P19821 whole entry)": "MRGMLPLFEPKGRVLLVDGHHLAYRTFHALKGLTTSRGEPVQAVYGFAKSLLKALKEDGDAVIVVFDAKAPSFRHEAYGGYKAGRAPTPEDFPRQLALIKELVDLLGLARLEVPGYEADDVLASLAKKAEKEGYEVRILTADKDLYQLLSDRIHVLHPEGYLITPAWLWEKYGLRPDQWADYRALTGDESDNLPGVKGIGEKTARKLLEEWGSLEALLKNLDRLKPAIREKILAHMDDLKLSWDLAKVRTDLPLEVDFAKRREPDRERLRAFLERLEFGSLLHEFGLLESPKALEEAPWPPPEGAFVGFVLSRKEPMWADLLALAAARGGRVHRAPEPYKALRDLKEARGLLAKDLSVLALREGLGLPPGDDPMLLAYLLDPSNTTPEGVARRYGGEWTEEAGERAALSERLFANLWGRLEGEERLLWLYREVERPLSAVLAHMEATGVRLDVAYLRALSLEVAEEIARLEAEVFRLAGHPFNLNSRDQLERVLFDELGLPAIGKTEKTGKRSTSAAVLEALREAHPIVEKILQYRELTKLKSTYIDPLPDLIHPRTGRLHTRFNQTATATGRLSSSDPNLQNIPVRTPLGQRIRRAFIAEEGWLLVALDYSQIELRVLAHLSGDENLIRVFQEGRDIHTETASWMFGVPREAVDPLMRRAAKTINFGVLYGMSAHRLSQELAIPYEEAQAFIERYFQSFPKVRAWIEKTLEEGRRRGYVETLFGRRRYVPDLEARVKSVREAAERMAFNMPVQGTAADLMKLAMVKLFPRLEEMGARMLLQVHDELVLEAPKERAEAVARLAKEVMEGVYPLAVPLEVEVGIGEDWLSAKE", "experiment": "Taq primer extension of 71-mer after random addition of compound or photoproduct", "assay_type": "biochemical", "conditions": "photobiotin 6×10^−6 M", "excerpt": "In this experiment, the ability of AMIP, AMDMIP and MIF to block replication of 71-mer is investigated by randomly adding each compound to the 71-mer. Of course, addition may only be random in the sense that one or more adducts may be formed with any one strand of nucleic acid. The actual placement of the isopsoralen may be governed by preferential binding at particular sites (e.g. A:T). In addition to blockage by random adducts, photoproducts of the various isopsoralens may be providing an inhibitory effect. No attempt to separate the effects of photoproduct from the effects of covalent adducts on the 71-mer template was made in this series of experiments.\nIn these experiments, the 71-mer template (10^−9 M) was primed with ^32P-SK-39 (10^−8) and extended with Taq polymerase in a total volume of […]. The dNTP concentration was 200 μM. In the control samples, the 71-mer, the primer, and the dNTPs were mixed in Taq buffer in a volume of 18 p1. These samples were initially denatured at 95° C. for 5 minutes, followed by equilibration at 55° C. for 3 minutes. Taq enzyme was then added (0.5 units) and the extension reaction was carried out for 5 minutes at 55° C. The reaction was stopped by making the solution 10 mM in EDTA. In another set of samples, the 71-mer in 10 μl was mixed with either AMIP (200 μg/ml), AMDMIP (200 μg/ml), or MIP (60 μg/ml). Half of these samples were irradiated for 15 minutes on the CE-I device at 25° C. The other half was kept in the dark as controls. These samples were then mixed with the primer and dNTPs as before, and were subjected to the same thermal profile and extension reactions as the samples that were described earlier. The results were examined by PAGE. The extended product bands were identified by autoradiography, excised and counted (data not shown). […]\n71-mer was made up in Taq buffer. Samples were prepared as follows: 1) dark control samples were not subjected to activating light; 2) 10 μl samples of the 71-mer (2×10^−9 M) were irradiated in the presence of 200 μg/ml AMDMIP, and 3) 10 μl samples of a 200 μg/ml solution of AMDMIP were irradiated in the absence of the 71-mer target. All irradiations were carried out with the CE-I device at 25° C. After preparing the above samples, unirradiated AMDMIP was added to one set of the dark control samples. Another set of dark controls received irradiated AMDMIP. ^32P-SK-39 primer and dNTPs were then added to all samples and the volume was adjusted to 18 μl. These samples were denatured at 95° C. for 5 minutes, followed by equilibration at 55° C. for 3 minutes. Taq polymerase was then added and the extension reaction was carried out for 5 minutes. The reaction was stopped by bringing the samples to 10 mM in EDTA. The final concentrations of all reagents during the extension reactions were: […]"}, "HIV 115-mer": {"tested_on": "HIV 115-mer", "experiment": "PCR with pre-irradiated photobiotin or monoazide ethidium chloride", "assay_type": "biochemical", "method": "In this experiment, photobiotin and monoazide ethidium chloride were tested as PCR sterilization reagents. The temporal steps were performed to examine photoproduct effects (if any). Solutions of photobiotin and monoazide ethidium chloride were made up in 1×Taq buffer. […] Each compound solution was divided into two parts: One part was irradiated under a GE sunlamp through a pyrex filter (300nm cut-off); the other half was irradiated under a GE sunlamp through a 2.9 M NaNO2 liquid filter (400 nm cut-off). Irradiations were carried out on ice for 15 minutes. After irradiation, aliquots of each tube were carried over into tubes containing PCR reagents and target (HIV 115-mer); PCR was then carried out for 30 cycles in the presence of α-^32P-dCTP. After amplification aliquots were analyzed on 12% acrylamide/8M urea gels."}, "[2]": {"tested_on": "DNA polymerase I from E. coli. B", "conditions": "covalently bound compound; cited from earlier work"}, "[3]": {"conditions": "as reported by Dall'Acqua et al.; cited from earlier work"}, "human placental DNA": {"tested_on": "human placental DNA", "experiment": "PCR in presence of AMDMIP and DMSO co-solvent", "assay_type": "biochemical", "conditions": "no AMDMIP, 0% DMSO gave 139,000", "method": "In this example, the effect of DMSO on PCR amplification in the presence of high concentrations of sterilizing compound (AMDMIP) was investigated. Samples were prepared for PCR which contained 1 μg of human placental DNA either with or without (unirradiated) AMDMIP (200 μg/ml). The samples were amplified 30 cycles under standard PCR conditions in the presence of 0%, 1%, 5% or 10% DMSO. The reaction mix contained α-^32P-dCTP. Following amplification, the samples were analyzed by PAGE (data not shown)."}},
  "data": [
    {"smiles": "Cc1oc2c(C)c3oc(=O)cc(C)c3cc2c1CO", "note": "[HMT, 4′-hydroxymethyl-4,5′,8-trimethylpsoralen]", "values": [
      {"measurement": "inhibition of polymerase by covalently bound monoadducts", "setting": "E. coli polymerase I; nick-translating a double-stranded template", "result": "not inhibited"},
      {"measurement": "inhibition of polymerase by monoadducts", "setting": "E. coli polymerase I; single-stranded bacteriophage DNA template", "result": "inhibited"},
      {"measurement": "Taq polymerase extension on 71-mer monoadduct template", "setting": "Taq I DNA polymerase", "result": "stop Tag polymerase"}
    ]},
    {"smiles": "O=c1ccc2ccccc2o1", "note": "[Coumarin, coumarin]", "values": [
      {"measurement": "inhibition of PCR in the absence of light", "setting": "PCR'd MACS 1555 target; dark control, coumarin 7×10^−3 to 7×10^−6 M", "result": "did not inhibit PCR at any of the concentrations tested"}
    ]},
    {"smiles": "O=c1ccc2ccc3occc3c2o1", "note": "[IP, isopsoralen, reference compound]", "values": [
      {"measurement": "solubility", "setting": "[1]; 1×TE buffer, aqueous buffer, thermodynamic from solid", "result": 2, "unit": "µg/mL"}
    ]},
    {"smiles": "CN(C)c1ccc2nc3ccc(=[N+](C)C)cc-3sc2c1", "note": "[methylene blue]", "values": [
      {"measurement": "concentrations that inhibited PCR in the absence of light", "setting": "PCR'd MACS 1555 target; tested 4.3×10^−2 to 4.3×10^−5 M, 30 cycles", "result": "above 4.3×10^−5 M"}
    ]},
    {"smiles": "CN(CCCNC(=O)CCCC[C@@H]1SC[C@@H]2NC(=O)N[C@@H]21)CCCNc1ccc(N=[N+]=[N-])cc1[N+](=O)[O-]", "note": "[photobiotin, reference compound]", "values": [
      {"measurement": "extension of 71-mer after irradiation with compound", "setting": "Taq polymerase; GE sunlamp 15 minutes on ice", "result": "inhibition only after irradiation"},
      {"measurement": "concentration of pre-irradiated compound that shut down PCR", "setting": "HIV 115-mer; range 7×10^−4 M to 7×10^−10 M, 115-mer amplified at all lower concentrations", "result": 700, "unit": "µM"}
    ]},
    {"smiles": "COc1cc(OC)c2ccc(=O)oc2c1", "note": "[DMC, 5,7-dimethoxycoumarin]", "values": [
      {"measurement": "loss of template activity of modified DNA", "setting": "[2]", "result": 50, "unit": "%"}
    ]},
    {"smiles": "Cc1cc2c(ccc3c(C)cc(=O)oc32)o1", "note": "[DMIP, 4,5′-Dimethylisopsoralen]", "values": [
      {"measurement": "Solubility in 1 × TE", "setting": "[1]", "result": "nd** (nd = not detectable (solubility was less than 1 μg/ml))"},
      {"measurement": "maximum aqueous solubility", "setting": "[3]", "result": 8, "unit": "µg/mL"}
    ]},
    {"smiles": "CC[n+]1c(-c2ccccc2)c2cc(N=[N+]=[N-])ccc2c2ccc(N)cc21", "note": "[monoazide ethidium chloride, reference compound]", "values": [
      {"measurement": "extension of 71-mer, dark control", "setting": "Taq polymerase; monoazide ethidium 1.4×10^−3 M, kept in the dark", "result": "inhibition of extension"},
      {"measurement": "inhibition of PCR by pre-irradiated compound", "setting": "HIV 115-mer; 3×10^−6 M to 3×10^−10 M, GE sunlamp 15 minutes on ice, 30 cycles", "result": "does not inhibit PCR"}
    ]},
    {"smiles": "C[S+](C)[O-]", "note": "[DMSO, dimethyl sulfoxide]", "values": [
      {"measurement": "product band CPM (average of duplicate samples)", "setting": "human placental DNA; 1% DMSO", "result": "137,000 CPM"},
      {"measurement": "product band CPM (average of duplicate samples)", "setting": "human placental DNA; 5% DMSO", "result": "94,000 CPM"},
      {"measurement": "product band CPM (average of duplicate samples)", "setting": "human placental DNA; 10% DMSO", "result": "76,000 CPM"}
    ]},
    {"smiles": "COc1c2occc2cc2ccc(=O)oc12", "note": "[Compound 8-MOP, 8-methoxypsoralen]", "values": [
      {"measurement": "loss of template activity of modified DNA", "setting": "[2]", "result": 97, "unit": "%"}
    ]}
  ]
}
